Data published in PMC11436758, “Computer-aided drug design to generate a unique antibiotic family” (Nature Communications, 2024).
≈ marks a conversion by molar mass, not a printed value. Blank lines part the entries; values can stand above or below the compound they belong to.

Assays:
Type in all cases: cell-based
[1] = system: P. aeruginosa ATCC 27853; test: MIC alone and MIC of colistin in combination with DNM compounds; settings: compound alone, bracket after colistin value is a range (0.25-4)
Procedure: (§1) The medium employed for the assay was Mueller Hinton II Broth (MHB II; Becton-Dickinson, Sparks, MD, USA). Agar plates used for the organisms were trypticase soy agar plus 5% sheep blood (BD; Sparks, MD, USA). MIC assay plates were prepared using the CLSI broth microdilution procedure. Automated liquid handlers (Multidrop 384, Biomek 2000 and Biomek FX) were used to conduct serial dilutions and liquid transfers. A standardized inoculum of each organism was prepared per CLSI methods. Suspensions were prepared to equal a 0.5 McFarland standard, followed by a 1:20 dilution in test media. The inocula were dispensed into sterile reservoirs divided by length (Beckman Colter) and the Biomek 2000 was used to inoculate the plates. Daughter plates were placed on the Biomek 2000 work surface in reverse orientation so that inoculation took place from low to high drug concentration. The Biomek 2000 delivered 10 μL of the diluted suspension into each well. These inoculations yielded a final cell concentration in the daughter plates of ~5 × 10^5 colony-forming units/mL in each well. The wells of the daughter plates ultimately contained 185 μL of broth, 5 μL of drug solution, and 10 μL of bacterial inoculum. Plates were covered with a sterile lid on the top plate, placed in plastic bags, and incubated at 35 °C for ~18 h. The microplates were viewed from the bottom using a plate viewer and the MIC was read. The MIC was recorded as the lowest concentration of drug that inhibited visible growth of the organism. Uninoculated solubility control plates were also observed for evidence of drug precipitation.
(§2) Compound K. pneumoniae A. baumannii E. coli P. aeruginosa […]
(§3) Supplementary Table 3. Minimum inhibitory concentration (MIC; µg/ml) of DNM
(§4) compounds that show potential synergy in combination with colistin. […]

[2] = system: E. coli ATCC 25922; test: as above; settings: compound alone, bracket after colistin value is a range (0.25-2)
Procedure: as §1, §2, §3, §4

[3] = system: K. pneumoniae MMX8390; test: as above; settings: compound alone
Procedure: as §1, §2, §3, §4

[4] = system: A. baumannii ATCC 19606; test: as above; settings: compound alone
Procedure: as §1, §2, §3, §4

[5] = system: K. pneumoniae; test: FIC checkerboard testing with colistin (FICI); settings: in combination with colistin
Procedure: For FIC testing, test ranges were set based on broth microdilution MIC test data. The wells of a standard 96-well microdilution plate (Costar) were filled with 150 μL of water in columns 2 through 12. A 300 μL aliquot of colistin at 40X the highest final concentration to be tested was added to each well in Column 1 of the plate. The Biomek 2000 was used to make eleven 2-fold serial dilutions in the “combination agent parental” plate from columns 2 through 11. The wells of the “test-agent parental” plate were filled with 150 μL of DMSO in rows B through H. Row A of this plate was filled with 300 μL of the DNM compound stock solution at 40X the highest final concentration to be tested. Serial 2-fold dilutions were then prepared from row B-G by hand using a multichannel pipette. The “daughter plates” were loaded with 180 μL of CAMHB using the Multidrop 384. The Biomek FX was used to transfer 5 μL of colistin from each well of the comparator parental plate to the corresponding well in all the daughter plates in a single step. Then a 5 μL aliquot from each well of the test agent parental plate was transferred by hand into the corresponding well of the daughter plate. Row H and Column 12 each contained serial dilutions of test agent and the combination agent alone, respectively, for determination of the MIC. This procedure was repeated for all test agents evaluated in combination with comparators. A standardized inoculum of each organism was prepared per CLSI methods. Colonies were picked from the primary plate and a suspension was prepared to equal a 0.5 McFarland turbidity standard. The suspensions were additionally diluted 1:20 in broth. A 10 μL standardized inoculum was delivered into each well using the Biomek 2000 from low to high concentration. These inoculations yielded a final cell concentration in the daughter plates of […]. Thus, the wells of the daughter plates ultimately contained […], 5 μL of test agent, 5 μL of the colistin, and 10 μL of inoculum. […] Plates were covered with a lid on the top plate, placed in plastic bags, and incubated at 35 °C for ~18 h. Plates were viewed from the bottom using a plate viewer. Prepared reading sheets were marked for the MIC of the combination agent, the MIC of test agent, and the wells of the growth-no growth interface for wells containing test agent and combination agent at varying ratios. […] For each relevant row of the panel, the FIC index (FICI) and mean FICI was calculated by: FICdrug A/MICdrug A + FICdrug B/MICdrug B = FIC index (FICI). The mean FICI for the combination was interpreted as follows: <0.5 = synergy, >0.5–4 = additive/indifferent, and >4 = antagonism. Microbiological measurements were performed and evaluated with Micromyx LLC (Kalamazoo, MI, USA).

[6] = system: HEK293 cells; test: in vitro
Procedure: (§5) Stock solutions of the test agents were prepared in DMSO (40 mg/mL) and stored at −20 °C until use. AlamarBlue HS™ cell viability reagent was acquired from Invitrogen (Cat # A50100, Carlsbad, CA). COS7 and HEK293 cells (obtained from ATCC) were cultured and tested at 37 °C in a 5% CO2/100% humidity environment in DMEM media supplemented with 10% fetal bovine serum. Cells were trypsinized, centrifuged, resuspended in cell media, counted on a hemacytometer, and diluted to an appropriate cell density to give the desired number of cells per 300 μl media. Cells were then loaded into 48-well cell culture plates (3548; Corning, Inc.); 300 μl/well at 60,000 cells per well. The cell density was determined in preliminary tests to give linear AlamarBlue HS™ readings over a 3.5 h period for HEK293 cells and 2 h period for COS7 cells after 2 days of growth; 2 wells per plate were loaded with 300 μl/well of cell-free media to provide background readings. Plates were cultured overnight, after which test agent solutions were prepared in media at the highest test concentration (100 ug/mL) and at five serial dilutions, each containing 0.25% DMSO and 0.125% Kolliphor® EL (Cat# 27963, Sigma Aldrich). The compounds concentrations were then loaded in separate columns via 300 μl/well. […] Normalized values representing the amount of AlamarBlue converted to its […] form were calculated for each well using background-corrected absorbances as described by the Alamar-Blue HS protocol information packet available from Invitrogen Technical Support. The fraction of control viability for each agent concentration with each cell line was then determined by the ratio of normalized values for the treated wells to the control wells. […] Values were determined by linear interpolation of fraction of control growth against concentration for the test agent concentrations.

[7] = system: COS7 cells; test: in vitro; settings: COS7 cells
Procedure: as §5

Compound: colistin [reference compound]
MIC [1]: 0.25 mg/L
MIC [2]: 0.25 mg/L
MIC [3]: 16 mg/L
MIC [4]: 0.25 mg/L

MIC [1]: > 64 mg/L
MIC [2]: > 64 mg/L
MIC [3]: > 64 mg/L
MIC [4]: > 64 mg/L
Compound: CC(C)c1cc(Cl)ccc1-c1cc(C(N)=O)sc1-c1ccc(Cl)cc1C(C)C [DNM0650]

MIC [1]: > 64 mg/L
MIC [2]: > 64 mg/L
MIC [3]: > 64 mg/L
MIC [4]: > 64 mg/L
Compound: Cc1cc(Cl)ccc1-c1cc(S(N)(=O)=O)sc1-c1ccc(Cl)cc1C [DNM0658]

Compound: Cc1cc(Cl)ccc1-c1cc(C(N)=O)sc1-c1ccc(Cl)cc1C [DNM0652]
Mean FICI ([5]; K. pneumoniae (ATCC 13883)): 0.19
Mean FICI ([5]; K. pneumoniae (FDA-CDC AR-BANK0040)): 0.41
Mean FICI ([5]; K. pneumoniae (FDA-CDC AR-BANK0046)): 0.4
Mean FICI ([5]; K. pneumoniae (FDA-CDC AR-BANK0047)): 0.3
Mean FICI ([5]; K. pneumoniae (FDA-CDC AR-BANK0087)): 0.38
Mean FICI ([5]; K. pneumoniae (FDA-CDC AR-BANK0097)): 0.34
Mean FICI ([5]; K. pneumoniae (FDA-CDC AR-BANK0106)): 0.32
Mean FICI ([5]; K. pneumoniae (FDA-CDC AR-BANK0109)): 0.35
Mean FICI ([5]; K. pneumoniae (FDA-CDC AR-BANK0125)): 0.32
Mean FICI ([5]; K. pneumoniae (FDA-CDC AR-BANK0364)): 0.29
Mean FICI ([5]; K. pneumoniae (FDA-CDC AR-BANK0454)): 0.28
interpretation of mean FICI ([5]; each strain of the Klebsiella panel): Synergy
MIC [1]: > 64 mg/L
MIC [2]: > 64 mg/L
MIC [3]: > 64 mg/L
MIC [4]: > 64 mg/L
LC50 ([6]; HEK293 cells, 24 h): 35 mg/L (≈ 93 µM)
IC50 (cell viability) ([6]; Hek293 cells, 24 hrs): 35.256 mg/L (≈ 93.7 µM)
Log IC50 (cell viability) ([6]; Hek293 cells, 24 hrs): 4.547
LC50 ([7]; 24 h): 37 mg/L (≈ 98.3 µM)
IC50 (cell viability) ([7]; 24 hrs): 37.434 mg/L (≈ 99.5 µM)
